From patent US20220041691A1, “METHODS FOR DIAGNOSING OR TREATING POST-TRAUMATIC STRESS DISORDER, AND COMPOSITIONS THEREFOR” (Centre for Addiction and Mental Health, priority 2018, published 2022)
Entries after “also recorded” stand apart in the source; their conditions may differ.

Tests used:
[1] = test system: fear-conditioned mice; assay: Cued fear conditioning, systemic (i.p.) peptide delivery; format: in vivo, mouse
Protocol: Next, testing was performed to determine whether TAT-GRpep can block the emergence of PTSD-like fear-related behaviours when administrated systemically. Animals underwent five rounds of CS-US pairings followed by 5 days of extinction training before the expression of fear in response to the learned cue was assessed (FIG. 4A). Mice were injected with either TAT-GRpep or TAT intraperitoneally (3 nmol/g, i.p.) one hour before the test.
Furthermore, testing was performed to determine whether disrupting the GR-FKBP51 complex reduced consolidation of cued fear memory. Thus, TAT or TAT-GRpep was administered two hours after the end of fear conditioning training (FIG. 4C), before five consecutive daily extinction sessions of cue exposure without shock. […] This may therefore indicate a potential approach to both preventing and treating PTSD-like behaviour in the aftermath of trauma, for example.
Animals were first given a five-minute habituation to the apparatus (Habitest, Colbourne Instruments). Then, animals were exposed to 30 seconds of cue exposure (an in-house white light), which co-terminated with one second of foot-shock (0.5 mA). The cue exposure and foot-shock were repeated five times, intermitted by 5-minute inter-trial intervals. Following the conditioning, animals were subjected to 2-5 days of extinction before the assessment of their cued fear memory, which consisted of 15 rounds of 30-second cue exposure, with 30-second inter-trial intervals (adapted from Andero et al.).^48
The expression of fear (in a different context from training) was assessed 24 hours after the last extinction training. The assessment consisted of a three-minute period of habituation (absence of CS) and a sequent three-minute trial of conditioned cues. The duration of freezing behaviors was recorded by a blinded experimenter. Peptide treatment was either administered 2 hours after the conditioning or 30 minutes before the behavioral assessment.

[2] = test system: GR-FKBP52 complex; assay: Co-immunoprecipitation of GR-FKBP52 complex in mouse brain slices; format: cell-based; conditions: 10 μM, 30 min, vs untreated controls or TAT alone, p<0.05, n=3
Protocol: (§1) To test this hypothesis, the effect of TAT-GRpep on GR-FKBP52 levels was examined using co-immunoprecipitation. […] Similar results were also obtained using confocal microscope in primary mouse neuron cultures.
(§2) Co-immunoprecipitation and Western blot analyses were performed as previously described.^24, 25, 26 For co-immunoprecipitation, 500˜1000 μg solubilized protein was extracted from whole mouse brain and incubated with primary antibody or control IgG (2˜4 μg) for 4 hrs at 4° C., followed by the addition of 25 μl protein A/G plus agarose (Santa Cruz Biotechnology) for 12 hrs. Pellets were washed, boiled for 5 min in SDS sample buffer and subjected to SDS-PAGE. 50˜100 μg of total protein extract was used as control in each experiment. After transfer of proteins into nitrocellulose, membranes were Western blotted with the primary antibodies. The intensity of protein level was quantified by densitometry (software: ImageLab, Bio-Rad).
Acute brain slices (350 μm thick) were prepared from C57Bl/6 mice with a McIlwain tissue chopper (Mickle Laboratory Engineering, Gomshall, United Kingdom). After being dissected from the brain, mouse cerebral hemispheres were left for 5 min in ice-cold artificial cerebrospinal fluid (aCSF) containing 126 mM NaCl, 2.5 mM KCl, 1 mM MgCl2, 1 mM CaCl2, 1.25 mM KH2PO4, 26 mM NaHCO3 and 20 mM glucose, which was bubbled continuously with carbogen (95% O2/5% CO2). […]

[3] = test system: nuclear GR; assay: Nuclear protein isolation, nuclear GR in mouse brain slices; format: cell-based; conditions: 10 μM, 30 min, vs TAT or untreated controls, p<0.001, n=3
Protocol: as §1
Acute brain slices (350 μm thick) were prepared from C57Bl/6 mice with a McIlwain tissue chopper (Mickle Laboratory Engineering, Gomshall, United Kingdom). After being dissected from the brain, mouse cerebral hemispheres were left for 5 min in ice-cold artificial cerebrospinal fluid (aCSF) containing 126 mM NaCl, 2.5 mM KCl, 1 mM MgCl2, 1 mM CaCl2, 1.25 mM KH2PO4, 26 mM NaHCO3 and 20 mM glucose, which was bubbled continuously with carbogen (95% O2/5% CO2). Freshly cut slices were placed in an incubating chamber with carbogenated aCSF and recovered from stress at 37° C. for 1 hour. Slices were then treated with TAT or TAT-GRpep and harvested for Western blot analysis.
(§3) Nuclear protein isolation assays were performed in acute mouse brain slices or mouse brain tissue using the Nuclear Protein Extraction Kit (Bio Basic Inc., Amherst, N.Y.). Briefly, after treatment with TAT or TAT-GRpep, mouse brain slices were harvested for nuclear protein extraction according to the manufacturer's instructions.

[4] = test system: nuclear GR; assay: Nuclear protein isolation, nuclear GR in brain of fear-conditioned mice; format: in vivo, mouse; conditions: 3 nmol/g i.p, vs TAT alone or saline, p<0.05, n=4
Protocol: as §3

[5] = biological target: T1, GR-FKBP51 complex (Mus musculus, UniProt Q64378); assay: Co-immunoprecipitation of GR-FKBP51 complex in brain and lymphocyte lysate of fear-conditioned mice injected with peptide; format: in vivo
T1 construct: from tissue; host or cells: C57Bl/6 mouse brain (acute slices; whole-brain lysate) and blood lymphocytes
T1 sequence (Q64378 1-456): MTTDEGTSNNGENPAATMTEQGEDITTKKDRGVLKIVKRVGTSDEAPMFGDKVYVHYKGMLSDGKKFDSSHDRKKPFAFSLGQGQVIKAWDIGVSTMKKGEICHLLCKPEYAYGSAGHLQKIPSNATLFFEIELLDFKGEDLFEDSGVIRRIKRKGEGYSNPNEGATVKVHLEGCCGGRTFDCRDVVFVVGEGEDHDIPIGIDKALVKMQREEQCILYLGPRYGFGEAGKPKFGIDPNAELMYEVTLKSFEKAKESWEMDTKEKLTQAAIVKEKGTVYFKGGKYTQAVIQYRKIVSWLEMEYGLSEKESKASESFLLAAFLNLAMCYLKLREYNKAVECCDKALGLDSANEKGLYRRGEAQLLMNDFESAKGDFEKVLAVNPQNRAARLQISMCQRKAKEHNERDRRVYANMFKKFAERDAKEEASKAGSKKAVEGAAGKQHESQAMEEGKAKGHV
Protocol: Furthermore, testing was performed to determine whether disrupting the GR-FKBP51 complex reduced consolidation of cued fear memory. Thus, TAT or TAT-GRpep was administered two hours after the end of fear conditioning training (FIG. 4C), before five consecutive daily extinction sessions of cue exposure without shock.
as §2

[6] = test system: fear-conditioned mice; assay: Cued fear conditioning, peptide injected into right amygdala or motor cortex; format: in vivo, mouse
Protocol: Next, testing was performed to determine whether disrupting the GR-FKBP51 complex could reduce freezing behaviors in fear-conditioned mice as a model for PTSD-related symptoms. […] The animals were then subjected to two days of extinction, where the same cues were presented without foot shock, before cued fear memory was assessed. One hour before the fear memory assessment, animals were injected with either control peptide (TAT) or treatment peptide (TAT-GRpep) into the right amygdala. […] However, two-way ANOVA confirmed a significant effect of the cue (F1, 46=10.387, p<0.01) and peptide (F1,46=7.708, p<0.01). […] Both treatment groups reacted similarly to the cue (p=NS; FIG. 3E).
Some of the animals were later subjected to implantation of cannula into either amygdala (AP−1.5, LM−3.0, DV−4.8) or motor cortex (AP+2.1, LM−2.0, DV−1.0). Following surgeries, animals were allowed one week to recover before subjected to any experimental procedures.
Animals were first given a five-minute habituation to the apparatus (Habitest, Colbourne Instruments). Then, animals were exposed to 30 seconds of cue exposure (an in-house white light), which co-terminated with one second of foot-shock (0.5 mA). […]
The expression of fear (in a different context from training) was assessed 24 hours after the last extinction training. […] The duration of freezing behaviors was recorded by a blinded experimenter. […]

For “GRKKRRQRRRPQSPWRSDLLIDENCLL (Amino Acid Sequence of TAT-GRpep Peptide)”, the “duration of freezing with the CS” value ([1]; 3 nmol/g i.p. one hour before the test, after 5 days of extinction training, three-minute cue trial, p<0.05) was 34.1 ± 6.7 s, the “freezing behavior during habituation period without CS” value ([1]; 3 nmol/g i.p. one hour before the test, TAT-GRpep vs control group, p=NS) was “no difference in freezing behavior” and the “cued freezing behaviours (FIG. 4D)” value ([1]; peptide administered after fear conditioning, before extinction sessions, p<0.05) was “reduced cued freezing behaviours”. The “duration of freezing with the CS (consolidation of cued fear memory)” value ([1]; peptide administered two hours after end of fear conditioning, tested 24 hours after last of five daily extinction sessions, p<0.05) was 55.9 ± 3.3 s, the “GR-FKBP52 complex (FKBP52 co-immunoprecipitated by GR antibody)” value [2] was “more FKBP52 was co-immunoprecipitated by GR antibody; also recorded: significantly increased the amount of GR-FKBP52 complex” and the “nuclear GR level / proportion of GR in the nucleus” value [3] was “higher levels of nuclear GR; also recorded: significantly increased”. The “nuclear GR level / GR nuclear localization” value [4] was “higher levels of nuclear GR; also recorded: increased”, the “GR-FKBP51 complex level in brain (co-immunoprecipitation)” value ([5]; brain lysate of fear-conditioned mice injected with TAT or TAT-GRpep, p<0.05, n=3) was “able to block the increase of GR-FKBP51 complex; also recorded: disrupt the GR-FKBP51 complex” and the “GR-FKBP51 complex level in lymphocyte lysate / peripheral blood (co-immunoprecipitation)” value ([5]; lymphocyte lysate from blood of fear-conditioned mice, p<0.01 vs TAT, n=4) was “able to disrupt the GR-FKBP51 complex”. For the same sequence, the “freezing behavior, cued fear memory assessment” value ([6]; injected into right amygdala one hour before assessment, after two days of extinction, vs control peptide, p<0.01) was “significantly lower level of freezing behavior; also recorded: significantly less freezing than controls” and the “freezing behavior, cued fear memory assessment” value ([6]; peptide infused into motor cortex instead of amygdala, p=NS) was “did not affect freezing”.
